{
  "source": "patent US20090227671A1",
  "about": "“Prevention and treatment of atherosclerosis with lithospermate B” (Industry-Academic Cooperation Foundation, priority 2005, published 2009)",
  "type_in_all_cases": "cell-based, Sprague-Dawley rats",
  "key": {"[1]": {"tested_on": "vascular smooth muscle cells", "test": "VSMC migration induced by PDGF-BB (modified Boyden chamber)", "conditions": "pretreated with LAB, various concentrations; 16 hrs", "procedure": "The migration of VSMC with 8 μm of pores was measured by using modified Boyden chamber method [Brown C, Pan X, Hassid A. Nitric oxide and C-type atrial natriuretic peptide stimulate primary aortic smooth muscle cell migration via a cGMP-dependent mechanism: relationship to microfilament dissociation and altered cell morphology. Circ Res. Apr. 2 1999; 84(6):655-667], which utilizes collagen-coated transwell tissue culture inserts consisting of polycarbonate membrane. 3.0×10^6 cells/mL of the above vascular smooth muscle cells were allowed to float in a culture medium without serum, treated with LAB with various concentrations and then cultured at 37° C. for 30 min. Then, the cells were treated with either 0.5 mL DMEM without serum or 0.5 mL DMEM without serum along with PDGF-BB 10 ng/mL and then placed in the lower part of a chamber. 100 μL of the folating materials of the above cells (final 3.0×10^5 cells/well) was added to the upper part of the chamber and cultured at 37° C. for 16 hrs. The cells were then fixed, dyed with hematoxylin, and filters were dried and developed.\nIt is known that […] plays an important role in proliferation of VSMC as well as development of atherosclerosis. To investigate whether LAB decreases the migration of VSMC induced by PDGF-BB, an experiment was performed as follows by using the aforementioned modified Boyden chamber method."}, "[2]": {"tested_on": "intracellular reactive oxygen species", "test": "Intracellular reactive oxygen species in VSMC (DCF fluorescence)", "conditions": "LAB pretreatment 1 hr", "procedure": "The amount of reactive oxygen species in cells was measured as described in the previous report [Hamaguchi A, Kim S, Izumi Y, et al. Contribution of extracellular signal-regulated kinase to angiotensin II-induced transforming growth factor-beta1 expression in vascular smooth muscle cells. Hypertension. July 1999; 34(1):126-131]. VSMC was cultured in a culture medium without serum for 24 hrs to stop cell proliferation and then pretreated with LAB with various concentrations of 1, 5, 10, 20, 30 μM for 1 hr. The cells were treated with either 10 ng/mL of PDGF-BB for 10 min or with 100 μM H2O2 for 1 min and then cultured in the presence of 5-(and-6)-chloromethyl-2′,7′-dichlorohydrofluorescein diacetate(CM-H2DCF-DA: Molecular Probes Inc., Eurogene, Oreg., USA) in the dark room for 10 min and cultured cells and generation of reactive oxygen species were observed by using fluorescent microscope.\nFirst, the amount of intracellular reactive oxygen species generated by PDGF-BB was measured by using peroxide-sensitive fluorophore DCF. As shown in FIG. 3A (B-1), the amount of intracellular reactive oxygen species generated by PDGF-BB evaluated with DCF fluorescence was 2.7 times greater. […] In this experiment, LAB was treated with PDGF-BB for 10 min. When LAB was pretreated, the amount of DCF fluorescence was decreased as compared to when it was treated only with PDGF-BB [FIG. 3A(A)]. […] Further, LAB decreased the activity of hydrogen peroxide, which increases the generation of intracellular reactive oxygen species, in proportion to its concentration (FIG. 3A(C))."}, "ERK1/2": {"tested_on": "ERK1/2", "test": "Western blot of ERK1/2 phosphorylation in VSMC induced by PDGF-BB", "procedure": "(§1) VSMC was washed with PBS and then dissolved in lysis buffer (25 mM Tris HCl, pH 7.4, 25 mM NaCl, 25 mM NaF, 25 mM sodium pyrophosphate, 1 mM sodium vanadate, 2.5 mM EDTA, 2.5 mM EGTA, 0.05% (wt/vol) Triton X-100, 0.5% (wt/vol) SDS, 0.5% (wt/vol) deoxycholate, 0.5% (wt/vol) Nonidet P-40, […], and 1 mM PMSF). The cells were collected and centrifuged at 13,000 rpm for 15 min and the protein concentration of the resulting supernatant was measured by Bradford assay. The proteins were denatured and were subjected to SDS-PAGE and then blotted onto nitrocellulose membranes. The membranes were placed in 5% (w/v) non-fat dry milk in TBS with 0.1% Tween20 (TBS-T) and then placed at room temperature for 3 hrs. The blots were placed at 4° C. along with anti-ERK1/2 or anti-Akt antibodies (Cell signaling Technologh, Berely. Mass., USA) for 16 hrs. The membranes were washed 4 times with TBS-T, added with anti-rabbit IgG antibody conjugated with horseradish peroxidase (1:2,000 diluent) and then placed at room temperature for 1 hr. The immunoreactive bands detected by ECL reagents were developed by Hyperfilm-ECL (Amersham Life Science, Little Chalfont, UK). The bands showing positive responses were quantitated by densitometry and then compared with that of control.\n(§2) In FIG. 1B, it is shown that both U0126 (20 μM) and LY294002 (40 μM) inhibited activities of LDH and MTT induced by PDGF-BB. As a way to investigate the signal transduction pathway involved in VSMC proliferation induced by PDGF-BB, an experiment was conducted to examine whether PDGF-BB activates a relatively lower signal transduction pathway such as ERK1/2 and Akt."}, "Akt": {"tested_on": "Akt", "test": "Western blot of Akt phosphorylation in VSMC induced by PDGF-BB", "procedure": "as §1, §2"}},
  "data": [
    {"smiles": "O=C(/C=C/c1ccc(O)c2c1[C@H](C(=O)O[C@H](Cc1ccc(O)c(O)c1)C(=O)[O-])[C@@H](c1ccc(O)c(O)c1)O2)O[C@H](Cc1ccc(O)c(O)c1)C(=O)[O-].[Mg+2]", "note": "[LAB, lithospermate B]", "values": [
      {"measurement": "migration of VSMC induced by PDGF-BB", "setting": "[1]", "result": "decreased in proportion to the concentration"},
      {"measurement": "amount of intracellular reactive oxygen species generated by PDGF-BB", "setting": "[2]; 10 ng/mL PDGF-BB 10 min", "result": "decreased in proportion to the concentration"},
      {"measurement": "intracellular reactive oxygen species induced by hydrogen peroxide", "setting": "[2]; 100 μM H2O2 1 min", "result": "decreased"},
      {"measurement": "decrease of ERK1/2 phosphorylation", "setting": "ERK1/2; 30 μM LAB, 20 mM NAC, 1 h, then PDGF-BB 10 min, FIG. 5C", "result": 0.8, "unit": "fold"},
      {"measurement": "phosphorylation of ERK1/2 due to PDGF-BB", "setting": "ERK1/2; LAB 1, 5, 10, 20, 30 μM for 1 h, PDGF-BB 10 min, FIG. 5B", "result": "inhibits"},
      {"measurement": "most effective concentration, inhibition of ERK1/2 phosphorylation", "setting": "ERK1/2; PDGF-BB 10 ng/mL", "result": 30, "unit": "µM"},
      {"measurement": "decrease of Akt phosphorylation", "setting": "Akt; 30 μM LAB, 20 mM NAC, 40 μM LY294002, 1 h, then PDGF-BB 10 min, FIG. 4C", "result": 8, "unit": "folds"},
      {"measurement": "phosphorylation of Akt due to PDGF-BB", "setting": "Akt; LAB 1, 5, 10, 20, 30 μM for 1 h, PDGF-BB 10 min, FIG. 4B", "result": "inhibits"},
      {"measurement": "most effective concentration, inhibition of Akt phosphorylation", "setting": "Akt; PDGF-BB 10 ng/mL", "result": 30, "unit": "µM"}
    ]}
  ]
}
